The source of these data is patent US6479534B1, “Indoline derivatives and method of treating obesity” (priority 2000, dated 2002).

SMILES strings stand for the structures. Where a name gives a salt, the structure may show the parent alone. Read-outs that look alike come from different tables or passages of the source.

In general, Ki refers to the equilibrium dissociation constant of an inhibitor or competing ligand from its target. In general, EC50 refers to the midpoint of the concentration-response curve. By melting point is commonly meant the temperature of the solid-liquid transition.

One series concerns the target T1, 5-HT2C receptor (Homo sapiens, UniProt P28335).
T1 construct: expressed in transfected cells; host or cells: CHO cell line
T1 sequence (P28335 33-458): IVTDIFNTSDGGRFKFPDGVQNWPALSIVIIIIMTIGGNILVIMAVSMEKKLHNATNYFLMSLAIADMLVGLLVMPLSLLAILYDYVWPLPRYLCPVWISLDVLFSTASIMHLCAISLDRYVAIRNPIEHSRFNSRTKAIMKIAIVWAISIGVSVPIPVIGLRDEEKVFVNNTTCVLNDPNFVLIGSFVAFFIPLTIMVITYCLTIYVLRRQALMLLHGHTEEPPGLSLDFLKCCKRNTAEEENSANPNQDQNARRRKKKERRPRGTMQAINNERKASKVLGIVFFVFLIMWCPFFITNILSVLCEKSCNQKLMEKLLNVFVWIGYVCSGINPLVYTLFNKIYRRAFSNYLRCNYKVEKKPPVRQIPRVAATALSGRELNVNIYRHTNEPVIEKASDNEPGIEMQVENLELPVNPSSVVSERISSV
Briefly: Radioligand binding to 5-HT2C receptor ([3H]-5-HT, CHO cell line). The conditions noted are these: read-out: Ki (2C). The protocol:
(§1) 1. Binding to Serotonin Receptors
(§2) The binding of compounds of formula (I) to serotonin receptors was determined in vitro by standard methods. The preparations were investigated in accordance with the assays given hereinafter.
Method (a): For the binding to the 5-HT2C receptor the 5-HT2C receptors were radiolabelled with [^3H]-5-HT. The affinity of the compounds for 5-HT2C receptors in a CHO cell line was determined according to the procedure of D. Hoyer, G. Engel and H. O. Kalkman, European J. Pharmacol., 1985, 118, 13-23.

For the next series, the target named is T2, human 5-HT2B receptors (Homo sapiens, UniProt P41595).
T2 construct: expressed in transfected cells; host or cells: CHO cell line
T2 sequence (P41595 whole entry): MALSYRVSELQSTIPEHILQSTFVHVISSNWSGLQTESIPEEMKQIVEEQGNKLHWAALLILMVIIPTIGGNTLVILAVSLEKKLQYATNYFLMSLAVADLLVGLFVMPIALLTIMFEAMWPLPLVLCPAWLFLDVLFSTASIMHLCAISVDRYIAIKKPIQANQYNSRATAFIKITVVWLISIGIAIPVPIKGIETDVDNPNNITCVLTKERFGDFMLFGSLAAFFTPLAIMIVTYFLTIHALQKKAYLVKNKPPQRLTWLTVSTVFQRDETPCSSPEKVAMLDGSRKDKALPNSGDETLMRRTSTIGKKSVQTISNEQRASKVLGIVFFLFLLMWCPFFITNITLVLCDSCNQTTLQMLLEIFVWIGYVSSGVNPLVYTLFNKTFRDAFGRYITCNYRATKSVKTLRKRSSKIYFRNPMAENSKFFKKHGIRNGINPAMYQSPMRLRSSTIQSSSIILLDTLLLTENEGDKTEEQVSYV
The series can be described thus: Radioligand binding to 5-HT2B receptor ([3H]-5-HT, CHO cell line). As for the experimental part: as §1, §2
Method (b): For the binding to the 5-HT2B receptor the 5-HT2B receptors were radiolabelled with [^3H]-5-HT. The affinity of the compounds for human 5-HT2B receptors in a CHO cell line was determined according to the procedure of K. Schmuck, C. Ullmer, P. Engels and H. Lubbert, FEBS Lett., 1994, 342, 85-90.

In the next series the target is T3, 5-HT2A receptor (Homo sapiens, UniProt P28223).
T3 construct: expressed in transfected cells; host or cells: CHO cell line
T3 sequence (P28223 whole entry): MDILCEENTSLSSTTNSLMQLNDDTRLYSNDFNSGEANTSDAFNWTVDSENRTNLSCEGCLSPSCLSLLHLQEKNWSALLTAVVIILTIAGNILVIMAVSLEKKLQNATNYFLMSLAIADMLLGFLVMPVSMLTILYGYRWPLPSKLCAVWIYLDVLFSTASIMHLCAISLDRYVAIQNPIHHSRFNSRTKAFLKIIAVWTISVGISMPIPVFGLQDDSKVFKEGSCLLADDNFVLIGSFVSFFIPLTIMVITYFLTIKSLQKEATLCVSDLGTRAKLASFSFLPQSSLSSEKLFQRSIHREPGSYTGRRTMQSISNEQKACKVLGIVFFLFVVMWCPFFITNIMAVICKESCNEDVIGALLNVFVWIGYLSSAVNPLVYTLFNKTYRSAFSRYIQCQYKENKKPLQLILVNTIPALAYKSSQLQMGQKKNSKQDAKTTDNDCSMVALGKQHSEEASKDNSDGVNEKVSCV
The series can be described thus: Radioligand binding to 5-HT2A receptor ([125I]-DOI, CHO cell line). Conditions: read-out: Ki (2A). The protocol:
as §1, §2
Method (c): For the binding to the 5-HT2A receptor the 5-HT2A receptors were radiolabelled with [^125I]-DOI. The affinity of the compounds for 5-HT2A receptors in a CHO cell line was determined according to the procedure of D. J. McKenna and S. J. Peroutka, J. Neurosci., 1989, 9/10, 3482-90.

In a further series the target is T4, h5-HT2A receptors (Homo sapiens, UniProt P28223).
T4 construct: expressed in transfected cells; host or cells: CHO cells
T4 sequence (P28223 whole entry): as above
The series can be described thus: Functional activity, FLIPR calcium assay, CHO cells expressing h5-HT2A. Format: cell-based. Conditions: for h5-HT2A Relative Efficacy: maximum fluorescent signal relative to 10 μM 5-HT (defined as 100%). The protocol: (§3) The functional activity of compounds of formula (I) was assayed using a Fluorimetric Imaging Plate reader (FLIPR):
(§4) CHO cells expressing either the h5-HT2C or h5-HT2A receptors were counted and plated into standard 96 well microtitre plates before the day of testing to give a confluent monolayer. The following day the cells were dye-loaded with the calcium sensitive dye Fluo 3-AM by incubation with serum free culture maintenance media containing pluronic acid and Fluo 3-AM dissolved in DMSO at 37° C. in a CO2 incubator at 95% humidity for approximately 90 minutes. Unincorporated dye was removed by washing with Hanks balanced salt solution containing 20 mM HEPES and 2.5 mM probenecid (the assay buffer) using an automated cell washer to leave a total volume of 100 μl/well.
(§5) The drug (dissolved in 50 μL of assay buffer) was added at a rate of 70 μL/sec to each well of the FLIPR 96 well plate during fluorescence measurements. The measurements are taken at 1 sec intervals and the maximum fluorescent signal was measured (approx 10-15 secs after drug addition) and compared with the response produced by 10 μM 5-HT (defined as 100%) to which it is expressed as a percentage response (relative efficacy).Dose response curves were constructed using Graphpad Prism (Graph Software Inc.).

A further series concerns the target T5, h5-HT2C receptors (Homo sapiens, UniProt P28335).
T5 construct: expressed in transfected cells; host or cells: CHO cells
T5 sequence (P28335 33-458): T1 sequence (P28335 33-458)
The series can be described thus: Functional activity, FLIPR calcium assay, CHO cells expressing h5-HT2C. In kind it is cell-based. Conditions: for h5-HT2C Relative Efficacy: maximum fluorescent signal relative to 10 μM 5-HT (defined as 100%). As for the experimental part: as §3, §4, §5

[1] abbreviates: [3H]-5-HT, human receptor, CHO cell line, read-out: Ki (2B).
Where [2] appears, read: FLIPR, Fluo 3-AM, CHO cells, read-out: h5-HT2C EC50.

As to `COc1c(F)ccc2c1C1CCCC1N2CC(C)N` (mixture of isomers) [Example 20, (2′S)-[1-[4-(7-Fluoro-1,2,3,3a,4,8b-hexahydro-8-methoxycyclopent[b]indolyl)]-2-propylamine fumarate], the Ki stood at 318 nM at 5-HT2C receptor, 367 nM on human 5-HT2B receptors and 481 nM on 5-HT2A receptor. For the same molecule, the EC50 at h5-HT2A receptors (FLIPR, Fluo 3-AM, CHO cells) turned out to be 5.49 µM; at h5-HT2C receptors, 464 nM. Besides, the “h5-HT2A Relative Efficacy” value at h5-HT2A receptors stood at 17%. In addition, the “h5-HT2C Relative Efficacy” value at h5-HT2C receptors was 62%.

Turning to `NCCN1c2ccccc2[C@H]2CCC[C@H]21.O=C(O)/C=C/C(=O)O` (racemic), the melting point is 172 °C (dec.).

With `C[C@H](N)CN1c2cc(Cl)c(F)cc2C2CCCC21` (single isomer, unassigned; isomer i) [Example 10, (2′S)-1-[4-(6-Chloro-7-fluoro-1,2,3,3a,4,8b-hexahydrocyclopent[b]indolyl)]-2-propylamine isomer I fumarate], the Ki at 5-HT2C receptor is 164 nM; on human 5-HT2B receptors (setting [1]), 109 nM; on 5-HT2A receptor, 983 nM. Also, the “h5-HT2A Relative Efficacy” value on h5-HT2A receptors was 20%. The EC50 on h5-HT2C receptors (setting [2]) stood at 737 nM.

On to `COc1cc2c(cc1F)C1CCCC1N2C[C@H](C)N` (single isomer, unassigned; isomer i) [Example 19, (2′S)-1-[4-(7-Fluoro-1,2,3,3a,4,8b-hexahydro-6-methoxycyclopent[b]indolyl)]-2-propylamine isomer I 0.7 fumarate], for which the Ki at 5-HT2C receptor came to 88 nM; on human 5-HT2B receptors, 513 nM; on 5-HT2A receptor, 1160 nM. On h5-HT2A receptors, the “h5-HT2A Relative Efficacy” value came to 0%. Moreover, the EC50 on h5-HT2C receptors came out at 391 nM. At h5-HT2C receptors, the “h5-HT2C Relative Efficacy” value is on record as 84%.

In the case of `C[C@H](N)CN1c2cc(Cl)ccc2[C@@H]2CCC[C@@H]21` [Example 2, (2′S, 3aS, 8b5)-[1-[4-(6-Chloro-1,2,3,3a,4,8b-hexahydrocyclopent[b]indolyl)]-2-propylamine hydrochloride], the figures for the Ki on 5-HT2C receptor, on human 5-HT2B receptors (setting [1]) and at 5-HT2A receptor were 133 nM, 302 nM and 726 nM, respectively. Further, at h5-HT2A receptors, the “h5-HT2A Relative Efficacy” value was 7%. Further, the EC50 on h5-HT2C receptors (setting [2]) was found to be 585 nM.
